Measurements reported in patent US20240246916A1, “7-NITRO-8-HYDROXYQUINOLINE DERIVATIVES, PREPARATION METHOD THEREFORE AND MEDICAL USE THEREOF” (Jiangsu Yahong Meditech Co., Ltd., priority 2021, published 2024).
Values after ≈ are worked out from the molar mass of the structure shown. Where two headings read alike, the source gives them in different places.

Legend:
Type in all cases: cell-based
[1] = system: Escherichia coli (carbapenem-resistant clinical isolate; ATCC25922); assay: MIC by micro broth dilution (CLSI), Escherichia coli; conditions: Escherichia coli
Description: (§1) The test bacteria were one strain of clinically isolated carbapenem-resistant Escherichia coli, two strains of carbapenem-resistant Acinetobacter baumannii, two strains of methicillin-resistant Staphylococcus aureus, two strains of sensitive Staphylococcus aureus, and 7 strains of Klebsiella pneumoniae. Duplicate strains isolated from the same patient were eliminated. There were also […] quality control strains Escherichia coli ATCC25922, Acinetobacter baumannii ATCC19606, Staphylococcus aureus ATCC29213, Klebsiella pneumoniae ATCC BAA-1705, ATCC 43816, ATCC BAA-2472, ATCC-BAA-1898, ATCC-BAA-1899, NCTC 13440 and ATCC-BAA-2470. There were 24 strains in total.
(§2) According to the recommendations of relevant documents of the American Clinical and Laboratory Standards Institute (CLSI), the micro broth dilution method was used to determine the MIC of the compounds of the present invention against clinically isolated strains. • 3.1 Formulation of antibacterial drug: All the compounds of the present invention were dissolved in DMSO. The drug concentration range was 128 mg/L to 0.06 mg/L. • 3.2 Culture medium: The drug susceptibility test used cation adjusted Mueller-Hinton broth (CAMHB). • 3.3 Amount of inoculum: The test bacteria cultured overnight were adjusted to 0.5 McFarland turbidity by the direct colony suspension method, and diluted 100 folds, the final inoculum amount was 10^5 CFU/mL. • 3.4 Culture conditions: The test bacteria were cultured at 35±2° C. for 20 hours in air.
(§3) The drug susceptibility test results were interpretated by reference to CLSI 2019 M100 29th edition criteria.
(§4) The quality control strains of the drug susceptibility test were Escherichia coli ATCC 25922, Acinetobacter baumannii ATCC 19606, Staphylococcus aureus ATCC 29213, Klebsiella pneumoniae ATCC BAA-1705, ATCC 43816, ATCC BAA-2472, ATCC-BAA-1898, ATCC-BAA-1899, NCTC 13440 and ATCC-BAA-2470.
(§5) The results of drug susceptibility test were statistically analyzed by WHONET software (version 5.6).

[2] = system: Acinetobacter baumannii (carbapenem-resistant clinical isolates; ATCC19606); assay: MIC by micro broth dilution (CLSI), Acinetobacter baumannii; conditions: Acinetobacter baumannii; for MIC50 / MIC90: ATCC19606
Description: as §1, §2, §3, §4, §5

[3] = system: Staphylococcus aureus (methicillin-resistant and sensitive clinical isolates; ATCC29213); assay: MIC by micro broth dilution (CLSI), Staphylococcus aureus
Description: as §1, §2, §3, §4, §5

[4] = ATCC25922, Clinical strain, read-out: MIC50
[5] = ATCC25922, Clinical strain, read-out: MIC90
[6] = Standard strain ATCC25922, read-out: MIC
[7] = Clinical strain, read-out: MIC50
[8] = Clinical strain, read-out: MIC90
[9] = Standard strain ATCC19606, read-out: MIC
[10] = Standard strain ATCC29213, read-out: MIC

O=[N+]([O-])c1ccc2cc(CN3CCOCC3)cnc2c1O [Example 97, 3-(morpholinomethyl)-7-nitroquinolin-8-ol]
MIC50 [1, 4]: > 128 µg/mL | MIC90 [1, 5]: > 128 µg/mL | MIC [1, 6]: > 128 µg/mL | MIC50 [2, 7]: 128 µg/mL (≈ 442 µM) | MIC90 [2, 8]: > 128 µg/mL | MIC [2, 9]: 128 µg/mL (≈ 442 µM) | MIC50 [3, 7]: 128 µg/mL (≈ 442 µM) | MIC90 [3, 8]: 128 µg/mL (≈ 442 µM) | MIC [3, 10]: 128 µg/mL (≈ 442 µM)

CNc1c([N+](=O)[O-])c(O)c2ncccc2c1Cl [Example 7, 5-Chloro-6-(methylamino)-7-nitroquinolin-8-ol]
MIC50 [1, 4]: 64 µg/mL (≈ 252 µM) | MIC90 [1, 5]: 128 µg/mL (≈ 505 µM) | MIC [1, 6]: 64 µg/mL (≈ 252 µM) | MIC50 [2, 7]: 32 µg/mL (≈ 126 µM) | MIC90 [2, 8]: 64 µg/mL (≈ 252 µM) | MIC [2, 9]: 64 µg/mL (≈ 252 µM) | MIC50 [3, 7]: 8 µg/mL (≈ 31.5 µM) | MIC90 [3, 8]: 16 µg/mL (≈ 63.1 µM) | MIC [3, 10]: 16 µg/mL (≈ 63.1 µM)

O=[N+]([O-])c1c(Cl)c(Cl)c2cccnc2c1O [Example 115, 5,6-dichloro-7-nitroquinolin-8-ol]
MIC50 [1, 4]: 64 µg/mL (≈ 247 µM) | MIC90 [1, 5]: 64 µg/mL (≈ 247 µM) | MIC [1, 6]: 16 µg/mL (≈ 61.8 µM) | MIC50 [2, 7]: 4 µg/mL (≈ 15.4 µM) | MIC90 [2, 8]: 4 µg/mL (≈ 15.4 µM) | MIC [2, 9]: 4 µg/mL (≈ 15.4 µM) | MIC50 [3, 7]: 1 µg/mL (≈ 3.86 µM) | MIC90 [3, 8]: 1 µg/mL (≈ 3.86 µM) | MIC [3, 10]: 2 µg/mL (≈ 7.72 µM)

C#Cc1ccnc2c(O)c([N+](=O)[O-])ccc12 [Example 80, 4-ethynyl-7-nitroquinolin-8-ol]
MIC50 [1, 4]: > 128 µg/mL | MIC90 [1, 5]: > 128 µg/mL | MIC [1, 6]: > 128 µg/mL | MIC50 [2, 7]: > 128 µg/mL | MIC90 [2, 8]: > 128 µg/mL | MIC [2, 9]: > 128 µg/mL | MIC50 [3, 7]: 128 µg/mL (≈ 598 µM) | MIC90 [3, 8]: 128 µg/mL (≈ 598 µM) | MIC [3, 10]: 128 µg/mL (≈ 598 µM)

CNCc1cc([N+](=O)[O-])c(O)c2ncccc12.Cl.Cl [Example 99, 5-((methylamino)methyl)-7-nitroquinolin-8-ol dihydrochloride]
MIC50 [1, 4]: > 128 µg/mL | MIC90 [1, 5]: > 128 µg/mL | MIC [1, 6]: > 128 µg/mL | MIC50 [2, 7]: > 128 µg/mL | MIC90 [2, 8]: > 128 µg/mL | MIC [2, 9]: 128 µg/mL | MIC50 [3, 7]: > 128 µg/mL | MIC90 [3, 8]: > 128 µg/mL | MIC [3, 10]: > 128 µg/mL

CCOC(=O)c1cnc2c(O)c([N+](=O)[O-])ccc2c1 [Example 88, ethyl 8-hydroxy-7-nitroquinoline-3-carboxylate]
MIC50 [1, 4]: > 128 µg/mL | MIC90 [1, 5]: > 128 µg/mL | MIC [1, 6]: > 128 µg/mL | MIC50 [2, 7]: > 128 µg/mL | MIC90 [2, 8]: > 128 µg/mL | MIC [2, 9]: 128 µg/mL (≈ 488 µM) | MIC50 [3, 7]: 4 µg/mL (≈ 15.3 µM) | MIC90 [3, 8]: 16 µg/mL (≈ 61 µM) | MIC [3, 10]: 16 µg/mL (≈ 61 µM)

Cl.Cl.Cl.O=[N+]([O-])c1ccc2cc(CN3CCNCC3)cnc2c1O [Example 102, 7-nitro-3-(piperazin-1-ylmethyl)quinolin-8-ol trihydrochloride]
MIC50 [1, 4]: > 128 µg/mL | MIC90 [1, 5]: > 128 µg/mL | MIC [1, 6]: 128 µg/mL | MIC50 [2, 7]: > 128 µg/mL | MIC90 [2, 8]: > 128 µg/mL | MIC [2, 9]: > 128 µg/mL | MIC50 [3, 7]: > 128 µg/mL | MIC90 [3, 8]: > 128 µg/mL | MIC [3, 10]: > 128 µg/mL

O=[N+]([O-])c1ccc2c(CN3CCCCC3)ccnc2c1O [Example 85, 7-nitro-4-(piperidin-1-yl-methyl)quinolin-8-ol]
MIC50 [1, 4]: 64 µg/mL (≈ 223 µM) | MIC90 [1, 5]: 64 µg/mL (≈ 223 µM) | MIC [1, 6]: 64 µg/mL (≈ 223 µM) | MIC50 [2, 7]: 32 µg/mL (≈ 111 µM) | MIC90 [2, 8]: 64 µg/mL (≈ 223 µM) | MIC [2, 9]: 32 µg/mL (≈ 111 µM) | MIC50 [3, 7]: 16 µg/mL (≈ 55.7 µM) | MIC90 [3, 8]: 64 µg/mL (≈ 223 µM) | MIC [3, 10]: 64 µg/mL (≈ 223 µM)

CCN(CC)Cc1cnc2c(O)c([N+](=O)[O-])cc(Cl)c2c1.O=C(O)C(F)(F)F.O=C(O)C(F)(F)F [Example 90, 5-chloro-3-((diethylamino)methyl)-7-nitroquinolin-8-ol ditrifluoroacetate]
MIC50 [1, 4]: 64 µg/mL | MIC90 [1, 5]: > 128 µg/mL | MIC [1, 6]: 64 µg/mL | MIC50 [2, 7]: 32 µg/mL | MIC90 [2, 8]: 128 µg/mL | MIC [2, 9]: 32 µg/mL | MIC50 [3, 7]: 32 µg/mL | MIC90 [3, 8]: 32 µg/mL | MIC [3, 10]: 32 µg/mL

O=C1CN(Cc2cnc3c(O)c([N+](=O)[O-])ccc3c2)CCN1 [Example 100, 4-((8-hydroxy-7-nitroquinolin-3-yl)methyl)piperazin-2-one]
MIC50 [1, 4]: > 128 µg/mL | MIC90 [1, 5]: > 128 µg/mL | MIC [1, 6]: > 128 µg/mL | MIC50 [2, 7]: > 128 µg/mL | MIC90 [2, 8]: > 128 µg/mL | MIC [2, 9]: > 128 µg/mL | MIC50 [3, 7]: > 128 µg/mL | MIC90 [3, 8]: > 128 µg/mL | MIC [3, 10]: > 128 µg/mL

O=[N+]([O-])c1c(F)cc2cccnc2c1O [Example 122, 6-fluoro-7-nitroquinolin-8-ol]
MIC50 ([1]; clinical strains, micro broth dilution, CAMHB, 35±2° C., 20 hours, read-out: MIC50 Escherichia coli Clinical strain): 64 µg/mL (≈ 307 µM) | MIC90 ([1]; clinical strains, micro broth dilution, CAMHB, 35±2° C., 20 hours, read-out: MIC90 Escherichia coli Clinical strain): 64 µg/mL (≈ 307 µM) | MIC ([1]; standard strain ATCC25922, micro broth dilution, CAMHB, 35±2° C., 20 hours, read-out: MIC Escherichia coli Standard strain ATCC25922): 64 µg/mL (≈ 307 µM) | MIC50 ([2]; clinical strains, micro broth dilution, CAMHB, 35±2° C., 20 hours, read-out: MIC50 Acinetobacter baumannii Clinical strain): 64 µg/mL (≈ 307 µM) | MIC90 ([2]; clinical strains, micro broth dilution, CAMHB, 35±2° C., 20 hours, read-out: MIC90 Acinetobacter baumannii Clinical strain): 64 µg/mL (≈ 307 µM) | MIC ([2]; standard strain ATCC19606, micro broth dilution, CAMHB, 35±2° C., 20 hours, read-out: MIC Acinetobacter baumannii Standard strain ATCC19606): 64 µg/mL (≈ 307 µM) | MIC50 ([3]; clinical strains, micro broth dilution, CAMHB, 35±2° C., 20 hours, read-out: MIC50 Staphylococcus aureus Clinical strain): 64 µg/mL (≈ 307 µM) | MIC90 ([3]; clinical strains, micro broth dilution, CAMHB, 35±2° C., 20 hours, read-out: MIC90 Staphylococcus aureus Clinical strain): 64 µg/mL (≈ 307 µM) | MIC ([3]; standard strain ATCC29213, micro broth dilution, CAMHB, 35±2° C., 20 hours, read-out: MIC Staphylococcus aureus Standard strain ATCC29213): 128 µg/mL (≈ 615 µM)

CCNCc1cc([N+](=O)[O-])c(O)c2ncccc12.Cl.Cl [Example 103, 5-((ethylamino)methyl)-7-nitroquinolin-8-ol dihydrochloride]
MIC50 [1, 4]: > 128 µg/mL | MIC90 [1, 5]: > 128 µg/mL | MIC [1, 6]: > 128 µg/mL | MIC50 [2, 7]: > 128 µg/mL | MIC90 [2, 8]: > 128 µg/mL | MIC [2, 9]: > 128 µg/mL | MIC50 [3, 7]: > 128 µg/mL | MIC90 [3, 8]: > 128 µg/mL | MIC [3, 10]: > 128 µg/mL

O=[N+]([O-])c1ccc2c(CN3CCOCC3)ccnc2c1O [Example 89, 4-(morpholinomethyl)-7-nitroquinolin-8-ol]
MIC50 [1, 4]: > 128 µg/mL | MIC90 [1, 5]: > 128 µg/mL | MIC [1, 6]: > 128 µg/mL | MIC50 [2, 7]: 128 µg/mL (≈ 442 µM) | MIC90 [2, 8]: 128 µg/mL (≈ 442 µM) | MIC [2, 9]: 128 µg/mL (≈ 442 µM) | MIC50 [3, 7]: 64 µg/mL (≈ 221 µM) | MIC90 [3, 8]: 64 µg/mL (≈ 221 µM) | MIC [3, 10]: 64 µg/mL (≈ 221 µM)

O=[N+]([O-])c1c(Br)c(Cl)c2cccnc2c1O [Example 114, 6-bromo-5-chloro-7-nitroquinolin-8-ol]
MIC50 [1, 4]: 64 µg/mL (≈ 211 µM) | MIC90 [1, 5]: 64 µg/mL (≈ 211 µM) | MIC [1, 6]: 16 µg/mL (≈ 52.7 µM) | MIC50 [2, 7]: 4 µg/mL (≈ 13.2 µM) | MIC90 [2, 8]: 8 µg/mL (≈ 26.4 µM) | MIC [2, 9]: 8 µg/mL (≈ 26.4 µM) | MIC50 [3, 7]: 2 µg/mL (≈ 6.59 µM) | MIC90 [3, 8]: 2 µg/mL (≈ 6.59 µM) | MIC [3, 10]: 2 µg/mL (≈ 6.59 µM)
